Active and inactive are the calls of the source. No cut-off for these calls is given here.
Assays:
Homo sapiens = organism: Homo sapiens; experiment: Selectivity ratio of IC50 for mTOR to IC50 for human recombinant SMG1
[1] = biological target: T1, Serine/threonine-protein kinase SMG1 (Homo sapiens, UniProt Q96Q15); experiment: Inhibition of human recombinant SMG1 expressed in HEK293 cells using GST-tagged p53 as substrate after 1 hr by DELFIA assay
[2] = biological target: Phosphatidylinositol 4,5-bisphosphate 3-kinase catalytic subunit alpha isoform (Homo sapiens, UniProt P42336); experiment: Inhibition of PI3Kalpha using diC8-tagged PIP2 as substrate after 30 to 60 mins by TAMRA-based fluorescence polarization assay
Sequence of Phosphatidylinositol 4,5-bisphosphate 3-kinase catalytic subunit alpha isoform (P42336 whole entry, canonical isoform): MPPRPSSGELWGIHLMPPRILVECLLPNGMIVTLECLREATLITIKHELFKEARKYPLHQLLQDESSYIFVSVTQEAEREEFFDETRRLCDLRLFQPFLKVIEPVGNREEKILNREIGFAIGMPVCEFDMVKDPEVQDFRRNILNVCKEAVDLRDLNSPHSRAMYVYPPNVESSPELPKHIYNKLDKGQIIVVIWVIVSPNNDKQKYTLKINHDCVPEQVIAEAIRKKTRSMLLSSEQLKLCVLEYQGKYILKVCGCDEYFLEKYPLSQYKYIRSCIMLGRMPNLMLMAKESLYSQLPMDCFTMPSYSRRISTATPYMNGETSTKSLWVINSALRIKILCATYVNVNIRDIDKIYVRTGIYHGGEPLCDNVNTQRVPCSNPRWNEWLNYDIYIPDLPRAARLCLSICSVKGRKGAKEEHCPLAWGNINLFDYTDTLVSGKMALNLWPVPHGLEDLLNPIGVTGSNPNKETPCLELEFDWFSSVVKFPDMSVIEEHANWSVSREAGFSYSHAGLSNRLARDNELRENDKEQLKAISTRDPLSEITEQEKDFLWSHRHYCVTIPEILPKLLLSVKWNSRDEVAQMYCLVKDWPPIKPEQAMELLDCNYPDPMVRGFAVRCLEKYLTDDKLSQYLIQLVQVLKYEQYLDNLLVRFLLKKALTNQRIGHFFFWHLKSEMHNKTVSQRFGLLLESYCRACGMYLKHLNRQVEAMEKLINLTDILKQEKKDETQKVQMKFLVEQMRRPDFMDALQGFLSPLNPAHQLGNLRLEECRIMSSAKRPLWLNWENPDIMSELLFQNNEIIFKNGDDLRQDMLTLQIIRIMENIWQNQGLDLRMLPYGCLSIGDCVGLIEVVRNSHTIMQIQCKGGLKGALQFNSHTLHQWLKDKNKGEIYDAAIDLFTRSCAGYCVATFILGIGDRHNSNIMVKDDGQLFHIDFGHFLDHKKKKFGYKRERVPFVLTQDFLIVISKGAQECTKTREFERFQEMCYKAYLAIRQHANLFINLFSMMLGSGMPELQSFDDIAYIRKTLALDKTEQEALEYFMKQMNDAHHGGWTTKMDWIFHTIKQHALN

[3] = biological target: Cyclin-dependent kinase 1 (Homo sapiens, UniProt P06493); experiment: Inhibition of CDK1
Sequence of Cyclin-dependent kinase 1 (P06493 whole entry): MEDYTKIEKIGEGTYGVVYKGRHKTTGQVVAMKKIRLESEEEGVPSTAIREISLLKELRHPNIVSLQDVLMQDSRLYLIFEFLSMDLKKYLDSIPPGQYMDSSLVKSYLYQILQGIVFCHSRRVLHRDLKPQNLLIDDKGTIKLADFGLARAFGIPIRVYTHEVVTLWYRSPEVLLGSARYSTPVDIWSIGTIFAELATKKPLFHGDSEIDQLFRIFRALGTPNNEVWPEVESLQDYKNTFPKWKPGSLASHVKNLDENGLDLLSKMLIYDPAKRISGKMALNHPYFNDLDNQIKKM

[4] = biological target: Cyclin-dependent kinase 2 (Homo sapiens, UniProt P24941); experiment: Inhibition of CDK2
[5] = biological target: Phosphatidylinositol 4,5-bisphosphate 3-kinase catalytic subunit gamma isoform (Homo sapiens, UniProt P48736); experiment: Inhibition of PI3Kgamma using diC8-tagged PIP2 as substrate after 30 to 60 mins by TAMRA-based fluorescence polarization assay
[6] = biological target: T2, Serine/threonine-protein kinase mTOR (Homo sapiens, UniProt P42345); experiment: Inhibition of mTOR
MDA-MB-361 = experiment: Inhibition of PI3K in human MDA-MB-361 cells assessed as inhibition of AKT phosphorylation at 0.3 to 3 uM after 6 hrs by immunostaining analysis; format: cell-based
[7] = biological target: T2, Serine/threonine-protein kinase mTOR; experiment: Inhibition of mTOR in human MDA-MB-361 cells assessed as inhibition of p70S6K phosphorylation at 0.3 to 3 uM after 6 hrs by immunostaining analysis; format: cell-based
[8] = biological target: T1, Serine/threonine-protein kinase SMG1; experiment: Inhibition of SMG1 in human MDA-MB-361 cells assessed as inhibition of UPF1 phosphorylation after 6 hrs by immunostaining analysis; format: cell-based
[9] = biological target: Glycogen synthase kinase-3 beta (Homo sapiens, UniProt P49841); experiment: Inhibition of GSK3beta
[10] = biological target: T1, Serine/threonine-protein kinase SMG1; experiment: Inhibition of SMG1 in human MDA-MB-361 cells assessed as inhibition of UPF1 phosphorylation at 1 uM after 6 hrs by immunostaining analysis; format: cell-based
[11] = biological target: T1, Serine/threonine-protein kinase SMG1; experiment: Inhibition of SMG1 in human MDA-MB-361 cells assessed as inhibition of UPF1 phosphorylation at 0.3 uM after 6 hrs by immunostaining analysis; format: cell-based
[12] = biological target: Glycogen synthase kinase-3 alpha (Homo sapiens, UniProt P49840); experiment: Inhibition of GSK3alpha
MDA-MB-468 = experiment: Cytotoxicity against human MDA-MB-468 cells; format: functional, cell-based
[13] = biological target: T1, Serine/threonine-protein kinase SMG1; experiment: Inhibition of SMG1 in human MDA-MB-361 cells assessed as inhibition of UPF1 phosphorylation up to 3 uM after 6 hrs by immunostaining analysis; format: cell-based

T1 sequence (Q96Q15 whole entry, canonical isoform): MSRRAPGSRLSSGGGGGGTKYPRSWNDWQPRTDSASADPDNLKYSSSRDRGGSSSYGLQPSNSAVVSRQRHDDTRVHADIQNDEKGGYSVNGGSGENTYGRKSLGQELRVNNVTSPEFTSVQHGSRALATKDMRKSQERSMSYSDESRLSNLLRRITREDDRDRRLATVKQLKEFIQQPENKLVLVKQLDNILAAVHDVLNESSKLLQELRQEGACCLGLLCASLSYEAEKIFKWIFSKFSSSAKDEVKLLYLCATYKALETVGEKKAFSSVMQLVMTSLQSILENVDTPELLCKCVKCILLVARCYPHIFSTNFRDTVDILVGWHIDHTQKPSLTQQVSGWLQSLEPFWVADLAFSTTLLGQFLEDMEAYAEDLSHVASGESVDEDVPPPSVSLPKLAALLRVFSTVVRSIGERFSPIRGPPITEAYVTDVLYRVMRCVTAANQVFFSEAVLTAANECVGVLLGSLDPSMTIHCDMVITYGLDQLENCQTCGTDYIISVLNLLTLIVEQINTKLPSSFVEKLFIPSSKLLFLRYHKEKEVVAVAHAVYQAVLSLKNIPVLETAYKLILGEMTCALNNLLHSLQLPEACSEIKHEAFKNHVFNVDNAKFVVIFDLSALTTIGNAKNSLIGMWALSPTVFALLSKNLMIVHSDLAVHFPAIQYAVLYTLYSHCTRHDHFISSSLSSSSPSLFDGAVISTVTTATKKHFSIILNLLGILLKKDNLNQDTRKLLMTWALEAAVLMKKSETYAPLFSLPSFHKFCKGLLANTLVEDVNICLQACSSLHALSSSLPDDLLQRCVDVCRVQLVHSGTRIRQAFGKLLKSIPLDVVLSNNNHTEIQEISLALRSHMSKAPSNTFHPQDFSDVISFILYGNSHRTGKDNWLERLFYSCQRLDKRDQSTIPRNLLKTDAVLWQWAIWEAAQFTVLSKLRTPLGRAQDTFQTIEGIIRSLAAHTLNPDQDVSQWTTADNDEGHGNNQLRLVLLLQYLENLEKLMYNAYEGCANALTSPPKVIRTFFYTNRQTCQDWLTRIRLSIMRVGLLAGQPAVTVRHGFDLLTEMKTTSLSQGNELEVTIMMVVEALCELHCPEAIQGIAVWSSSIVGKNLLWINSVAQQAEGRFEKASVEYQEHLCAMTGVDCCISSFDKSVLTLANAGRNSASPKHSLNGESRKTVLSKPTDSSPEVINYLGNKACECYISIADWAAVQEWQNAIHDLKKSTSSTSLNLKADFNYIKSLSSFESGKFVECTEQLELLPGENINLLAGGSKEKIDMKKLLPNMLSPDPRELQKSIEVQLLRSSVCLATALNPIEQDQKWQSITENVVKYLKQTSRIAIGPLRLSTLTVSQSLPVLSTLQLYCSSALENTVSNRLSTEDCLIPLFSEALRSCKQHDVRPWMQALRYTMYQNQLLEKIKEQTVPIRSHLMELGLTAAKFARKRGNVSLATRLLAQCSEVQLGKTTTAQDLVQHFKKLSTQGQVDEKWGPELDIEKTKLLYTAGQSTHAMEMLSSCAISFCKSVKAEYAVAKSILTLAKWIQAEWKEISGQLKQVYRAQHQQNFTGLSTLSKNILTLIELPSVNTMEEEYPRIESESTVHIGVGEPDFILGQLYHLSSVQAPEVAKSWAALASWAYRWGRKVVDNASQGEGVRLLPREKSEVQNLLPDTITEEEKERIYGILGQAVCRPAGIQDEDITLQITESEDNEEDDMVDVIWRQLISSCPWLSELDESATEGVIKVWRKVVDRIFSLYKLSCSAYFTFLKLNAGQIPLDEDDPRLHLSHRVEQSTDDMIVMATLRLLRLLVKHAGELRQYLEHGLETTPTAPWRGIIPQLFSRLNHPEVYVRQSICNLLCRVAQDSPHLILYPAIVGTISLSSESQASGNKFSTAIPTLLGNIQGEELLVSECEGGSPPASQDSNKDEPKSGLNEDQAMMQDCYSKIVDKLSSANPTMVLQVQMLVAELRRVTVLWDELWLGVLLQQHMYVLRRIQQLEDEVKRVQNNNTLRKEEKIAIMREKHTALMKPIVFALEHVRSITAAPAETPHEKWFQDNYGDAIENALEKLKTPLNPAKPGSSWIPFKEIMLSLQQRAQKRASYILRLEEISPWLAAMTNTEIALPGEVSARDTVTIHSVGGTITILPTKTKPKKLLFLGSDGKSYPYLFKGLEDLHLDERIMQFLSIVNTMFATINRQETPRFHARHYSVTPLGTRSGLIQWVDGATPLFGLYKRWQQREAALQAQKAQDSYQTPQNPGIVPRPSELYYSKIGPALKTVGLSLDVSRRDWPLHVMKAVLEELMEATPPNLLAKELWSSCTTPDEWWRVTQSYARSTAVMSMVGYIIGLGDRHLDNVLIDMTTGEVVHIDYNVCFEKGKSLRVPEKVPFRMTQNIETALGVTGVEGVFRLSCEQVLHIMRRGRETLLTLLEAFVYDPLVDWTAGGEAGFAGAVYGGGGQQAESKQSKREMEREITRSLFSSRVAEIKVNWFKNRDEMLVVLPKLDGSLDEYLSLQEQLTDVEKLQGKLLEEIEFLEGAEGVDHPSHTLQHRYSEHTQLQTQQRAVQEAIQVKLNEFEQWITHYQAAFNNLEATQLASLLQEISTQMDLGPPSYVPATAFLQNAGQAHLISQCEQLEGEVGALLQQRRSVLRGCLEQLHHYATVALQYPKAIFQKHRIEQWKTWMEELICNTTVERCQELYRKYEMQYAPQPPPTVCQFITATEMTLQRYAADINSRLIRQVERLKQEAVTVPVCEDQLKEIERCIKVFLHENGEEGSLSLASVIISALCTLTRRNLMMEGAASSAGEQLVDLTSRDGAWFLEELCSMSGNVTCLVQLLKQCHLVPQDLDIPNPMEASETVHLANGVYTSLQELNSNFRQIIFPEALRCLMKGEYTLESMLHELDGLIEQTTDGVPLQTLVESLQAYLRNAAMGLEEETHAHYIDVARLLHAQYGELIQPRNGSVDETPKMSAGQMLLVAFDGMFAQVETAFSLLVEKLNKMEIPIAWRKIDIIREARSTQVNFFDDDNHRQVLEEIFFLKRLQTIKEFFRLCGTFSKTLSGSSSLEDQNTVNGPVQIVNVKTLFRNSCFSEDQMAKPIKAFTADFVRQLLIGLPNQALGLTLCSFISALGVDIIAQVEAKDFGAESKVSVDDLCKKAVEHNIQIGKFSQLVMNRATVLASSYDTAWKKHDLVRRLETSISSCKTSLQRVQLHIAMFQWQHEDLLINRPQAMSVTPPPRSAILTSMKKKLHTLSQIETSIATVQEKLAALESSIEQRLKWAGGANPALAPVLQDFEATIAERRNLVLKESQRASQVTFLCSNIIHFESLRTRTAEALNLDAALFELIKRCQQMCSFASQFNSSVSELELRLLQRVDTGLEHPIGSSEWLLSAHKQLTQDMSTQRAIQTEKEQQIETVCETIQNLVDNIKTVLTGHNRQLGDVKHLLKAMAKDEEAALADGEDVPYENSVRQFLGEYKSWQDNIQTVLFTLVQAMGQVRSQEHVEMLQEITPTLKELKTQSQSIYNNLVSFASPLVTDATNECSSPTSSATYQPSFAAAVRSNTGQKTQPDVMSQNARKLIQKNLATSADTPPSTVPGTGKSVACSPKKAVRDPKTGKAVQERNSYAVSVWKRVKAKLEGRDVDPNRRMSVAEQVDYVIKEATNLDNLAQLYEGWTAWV

Compound	Ratio IC50 (Homo sapiens)	IC50 [1] [nM]	IC50 [3] [nM]	IC50 [4] [nM]	IC50 [6] [nM]	further results
NS(=O)(=O)c1cccc(Nc2nccc(-c3ccnc(N4CCOCC4)c3)n2)c1	56	11	55	19	610	–
CCN(CC)S(=O)(=O)c1cc(Nc2nccc(-c3ccnc(-c4ccc(NC(=O)NC)cc4)c3)n2)ccc1Cl	455	0.11	32000	7100	50	IC50 [9]: 330 nM; inhibition [10]: Active; inhibition (MDA-MB-361): inactive; IC50 [2]: 92 nM; inhibition [11]: Active; IC50 [12]: 260 nM; inhibition [7]: inactive; IC50 [5]: 60 nM; IC50 (MDA-MB-468): 75 nM
Clc1cccc(Nc2nccc(-c3ccnc(N4CCOCC4)c3)n2)c1	> 71	280	35	8.9	> 20000	–
CNC(=O)Nc1ccc(-c2cc(-c3ccnc(Nc4ccc(C)c(S(=O)(=O)NC)c4)n3)ccn2)cc1	> 350	< 0.05	230	110	18	IC50 [2]: 43 nM; IC50 [5]: 63 nM
COc1cccc(Nc2nccc(-c3ccnc(N4CCOCC4)c3)n2)c1	4	1100	–	–	4600	–
CN1CCN(c2cc(-c3ccnc(Nc4cccc(S(N)(=O)=O)c4)n3)ccn2)CC1	10	310	–	–	3300	–
NS(=O)(=O)c1ccc(Nc2nccc(-c3cccc(C(=O)N4CCCCC4)c3)n2)cc1	–	450	–	–	890	–
NS(=O)(=O)c1ccc(Nc2nccc(-c3ccnc(N4CCOCC4)c3)n2)cc1	> 54	370	–	–	> 20000	inhibition [13]: inactive
NS(=O)(=O)c1cccc(Nc2nccc(-c3ccnc(N4CC5CCC(C4)O5)c3)n2)c1	33	6	48	21	200	–
Cc1cccc(Nc2nccc(-c3ccnc(N4CCOCC4)c3)n2)c1	> 61	330	100	46	> 20000	–
CNC(=O)Nc1ccc(-c2cc(-c3ccnc(Nc4ccc(C)c(S(=O)(=O)N(C)C)c4)n3)ccn2)cc1	> 900	< 0.05	1200	460	45	IC50 [2]: 61 nM; IC50 [5]: 72 nM
CCN(CC)S(=O)(=O)c1cc(Nc2nccc(-c3ccnc(-c4ccc(NC(=O)NC)cc4)c3)n2)ccc1C	440	0.2	14000	3000	88	IC50 [2]: 130 nM; IC50 [5]: 93 nM
CNC(=O)Nc1ccc(-c2cc(-c3ccnc(Nc4ccc(C)c(S(N)(=O)=O)c4)n3)ccn2)cc1	> 320	< 0.05	–	–	16	–
NS(=O)(=O)c1cccc(Nc2nccc(-c3ccnc(NCCCO)c3)n2)c1	15	22	12	6.7	320	–
FC(F)(F)c1cccc(Nc2nccc(-c3ccnc(N4CCOCC4)c3)n2)c1	7	250	–	–	1700	–
CNC(=O)Nc1ccc(-c2cc(-c3ccnc(Nc4cccc(S(N)(=O)=O)c4)n3)ccn2)cc1	> 360	< 0.05	62	23	18	IC50 [2]: 44 nM; IC50 [5]: 91 nM
CCN(CC)c1cc(-c2ccnc(Nc3cccc(S(N)(=O)=O)c3)n2)ccn1	37	3	7.4	< 5.2	110	–

Continued, in another order:

Ratio IC50 (Homo sapiens)	IC50 [1] [nM]	IC50 [3] [nM]	IC50 [4] [nM]	IC50 [6] [nM]	Compound	further results
> 150	0.1	210	100	15	CNC(=O)Nc1ccc(-c2cc(-c3ccnc(Nc4cccc(S(=O)(=O)NC)c4)n3)ccn2)cc1	IC50 [2]: 80 nM; IC50 [5]: 82 nM
47	3	36	16	140	NS(=O)(=O)c1cccc(Nc2nccc(-c3ccnc(N4CCCCC4)c3)n2)c1	inhibition (MDA-MB-361): Active; inhibition [7]: Active; inhibition [8]: Dose-dependent effect
> 244	< 0.05	1400	520	12	CNC(=O)Nc1ccc(-c2cc(-c3ccnc(Nc4ccc(Cl)c(S(=O)(=O)N(C)C)c4)n3)ccn2)cc1	IC50 [2]: 33 nM; IC50 [5]: 54 nM
8	110	< 5.2	< 5.2	800	OCCCNc1cc(-c2ccnc(Nc3cccc(Cl)c3)n2)ccn1	–
125	0.2	3200	560	25	CCN(CC)S(=O)(=O)c1cccc(Nc2nccc(-c3ccnc(-c4ccc(NC(=O)NC)cc4)c3)n2)c1	IC50 [2]: 78 nM; IC50 [5]: 59 nM
> 3	1500	–	–	> 4000	c1ccc(Nc2nccc(-c3ccnc(N4CCOCC4)c3)n2)cc1	–
130	25	100	31	3200	NS(=O)(=O)c1cccc(Nc2nccc(-c3ccnc(N4C5CCC4COC5)c3)n2)c1	–
> 50	80	–	–	> 4000	N#Cc1cccc(Nc2nccc(-c3ccnc(N4CCOCC4)c3)n2)c1	–
> 19	1000	–	–	> 20000	Clc1ccc(Nc2nccc(-c3ccnc(N4CCOCC4)c3)n2)cc1	–
> 154	< 0.05	320	140	7.7	CNC(=O)Nc1ccc(-c2cc(-c3ccnc(Nc4ccc(Cl)c(S(=O)(=O)NC)c4)n3)ccn2)cc1	–

From ChEMBL document CHEMBL2157945, “Identification of pyrimidine derivatives as hSMG-1 inhibitors” (Bioorg Med Chem Lett, 2012)
